Laboratory results reported in patent publication US20130030000A1, “PHARMACEUTICAL COMPOSITIONS FOR THE TREATMENT OF PAIN AND OTHER INDICATIONS” (priority 2010, published 2013).

Biological target: T1, Human FAAH (Homo sapiens, UniProt O00519)
T1 construct: The full length FAAH was subcloned into the mammalian expression vector, peDEF.neo
T1 sequence (O00519 1-579): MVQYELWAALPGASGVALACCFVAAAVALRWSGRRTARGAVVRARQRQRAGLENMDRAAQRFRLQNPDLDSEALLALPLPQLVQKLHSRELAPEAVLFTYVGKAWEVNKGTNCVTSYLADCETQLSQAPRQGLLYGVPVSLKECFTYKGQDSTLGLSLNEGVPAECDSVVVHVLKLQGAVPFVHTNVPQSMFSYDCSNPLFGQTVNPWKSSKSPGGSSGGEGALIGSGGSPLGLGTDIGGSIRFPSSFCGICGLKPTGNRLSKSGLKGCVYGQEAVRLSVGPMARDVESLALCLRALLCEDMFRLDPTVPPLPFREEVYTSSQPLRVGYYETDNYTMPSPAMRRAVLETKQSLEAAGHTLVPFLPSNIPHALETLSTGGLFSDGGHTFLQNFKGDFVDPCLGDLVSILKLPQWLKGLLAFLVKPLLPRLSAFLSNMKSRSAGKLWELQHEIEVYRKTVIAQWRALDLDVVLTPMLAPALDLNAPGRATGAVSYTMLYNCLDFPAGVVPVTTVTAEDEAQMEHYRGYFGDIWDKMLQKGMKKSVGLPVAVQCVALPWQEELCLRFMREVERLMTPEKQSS
Test: Human FAAH lysate assay (CHO cell lysate expressing FAAH, AAMCA or 3H-anandamide hydrolysis)
Type: biochemical
Settings: B series; read-out: Human FAAH lysate assay: IC50
Description: To assist in assay development stable cell lines for human, murine and rat full length FAAH were developed. […] The full length FAAH was subcloned into the mammalian expression vector, peDEF.neo, using XbaI and EcoRI restriction sites and used for stable cell line generation.
CHO cells expressing FAAH were used to prepare either crude cell lysate or microsome fractions. To harvest cells, tissue culture media was decanted, the monolayer washed three times with Ca^++Mg^++ free PBS and cells recovered after […] in enzyme free dissociation media (Millipore Corp, Billerica, Mass.). Cells were collected by centrifuging at 2000 rpm for 15 min. and the cell pellet re-suspended with 50 mM HEPES (pH 7.4) containing 1 mM EDTA and the protease inhibitors aprotinin (1 mg/ml) and leupeptin (100 μM). The suspension was sonicated at 4° C. and the cell lysate recovered after centrifuging at 12,000×g (14,600 rpm, SS34 rotor) for 20 min at 4° C. to form a crude pellet of cell debris, nuclei, peroxisomes, lysosomes, and mitochondria; the supernatant or cell lysate was used for FAAH enzyme assay. In some cases, microsomes fractions enriched in FAAH were prepared by centrifuging the cell lysate further at 27,000 rpm (100,000×g) in SW28 rotor for 50 minutes at 4° C. The pellet containing FAAH-enriched microsomes was re-suspend in 50 mM HEPES, (pH 7,4) 1 mM EDTA, and any remaining DNA sheared by passage of material through a 23 gauge needle and aliquots of enzyme were store at −80° C. prior to use.
Assays are performed on either cell lysate or microsome fractions prepared as described or in whole cell format employing either the fluorescent substrate AAMCA (Cayman chemical, Ann Arbor, Mich.,) or ^3H-anandamide ([ETHANOLAMINE-1-3H] American Radiolabeled Chemicals; 1 mCi/ml). The cell lysate or microsome assay is performed in Costar black wall, clear bottom plates by adding FAAH_CHO (whole cell, cell lysate or microsome) in assay buffer (50 mM Phosphate, pH 8.0, 1 mM EDTA, 200 mM KCl, 0.2% glycerol, 0.1% fatty acid free BSA) to each well, followed by either DMSO or compound and allowed to incubate at 22-25° C. for fifteen minutes. AAMCA substrate was used to achieve a final concentration of 1 μM and reaction allowed to proceed at room temperature for 1-3 hours. […] Whole cell assay is conducted with cells harvested after rinsing tissue culture flasks three times with Ca^++Mg^++ free PBS, incubating for 10 mm in Enzyme free dissociation media and centrifuging for 5 minutes at 1,000 rpm in table top centrifuge. Cells are resuspended in assay buffer at desired cell number in (4×10^4 cells/assay in 96-well format; 1×10^4 cells/assay in 384-well format) and assayed as described.
Alternatively, assays are performed using anandamide [ethanolamine 1-^3H] (specific activity of 10 Ci/mmol) diluted with cold anandamide to achieve a final assay concentration of 1 μM anandamide (˜50,000 cpm). Enzyme (CHO cell lysate, brain or liver homogenate) is incubated in assay buffer (50 mM Phosphate, pH 8.0, 1 mM EDTA, 200 mM KCl, 0.2% glycerol, 0.1% fatty acid free BSA) with inhibitor at 25° C. for 30 minutes. The reaction was terminated by addition of 2 volumes of chloroform:methanol (1:1) and mixed by vortexing. Following a centrifugation step, 2000 rpm for 10 min. at room temperature, the aqueous phase containing the released […] was recovered and quantitated by liquid scintillation as a reflection of FAAH enzyme activity.

Row | IC50 [nM] | Compound
1 | 1.5 | Cn1cnc(-c2ccc([C@H]3C[C@@H]3C(=O)NCCF)cc2)c1Sc1ccc(Cl)cn1 [Example 1013, (1S,2S)-2-(4-{5-[(5-Chloropyridin-2-yl)thio]-1-methyl-1H-imidazol-4-yl}phenyl)-N-(2-fluoroethyl)cyclopropanecarboxamide]
2 | 545 | Cn1cnc(-c2ccc([C@H]3C[C@@H]3c3n[nH]c(=O)[nH]3)cc2)c1Sc1ccc(Cl)cn1 [Example 33B, 5-[(1S,2S)-2-(4-{5-[(5-chloropyridin-2-yl)thio]-1-methyl-1H-imidazol-4-yl}phenyl)cyclopropyl]-2,4-dihydro-3H-1,2,4-triazol-3-one]
3 | 37 | Cn1nnc([C@H]2C[C@@H]2c2ccc(-c3ncn(C)c3Sc3ccc(Cl)cn3)cc2)n1 [Example 38B, 5-chloro-2-[(1-methyl-4-{4-[(1 S,2S)-2-(2-methyl-2H-tetrazol-5-yl)cyclopropyl]phenyl}-1H-imidazol-5-yl)thio]pyridine]
4 | 35.5 | COC[C@H]1C[C@@H]1c1ccc(-c2ncn(C)c2Sc2ccc(Cl)cn2)cc1 [Example 24B, 5-Chloro-2-[(4-{4-[(1S,2S)-2-(methoxymethyl)cyclopropyl]phenyl}-1-methyl-1H-imidazol-5-yl)thio]pyridine]
5 | 8.7 | Cn1cnc(-c2ccc([C@H]3C[C@@H]3C(C)(C)O)cc2)c1Sc1ccc(Cl)cn1 [Example 22B, 2-[(1S,2S)-2-(4-{5-[(5-Chloropyridin-2-yl)thio]-1-methyl-1H-imidazol-4-yl}phenyl)cyclopropyl]propan-2-ol]
6 | 0.2 | COC(=O)[C@H]1C[C@@H]1c1ccc(-c2ncn(C)c2Sc2ccc(Cl)cn2)cc1 [Example 21B, Methyl (1S,2S)-2-(4-{5-[(5-chloropyridin-2-yl)thio]-1-methyl-1H-imidazol-4-yl}phenyl)cyclopropanecarboxylate]

Same assay, conditions: tables of the B series; read-out: hFAAH lysate IC50

Row | IC50 [nM] | Compound
7 | 196 | Cn1cnc(-c2ccc([C@H]3C[C@@H]3C(=O)NC(C)(C)C)cc2)c1Sc1ccc(Cl)cn1 [Example 8B]
8 | 3.3 | Cn1cnc(-c2ccc([C@H]3C[C@@H]3C(N)=O)cc2)c1Sc1ccc(Cl)cn1 [Example 7B]
9 | 2.6 | Cn1cnc(-c2ccc(C3CC3C(N)=O)cc2)c1Sc1ccc(Cl)cn1 (stereo not shown) [Example 4B]
10 | 1.3 | Cn1cnc(-c2ccc([C@H]3C[C@@H]3c3n[nH]c(=O)o3)cc2)c1Sc1ccc(F)cc1F [Example 41B]
11 | 12.7 | NC(=O)[C@H]1C[C@@H]1c1ccc(-c2ncn(CCF)c2Sc2ccc(Cl)cn2)cc1 [Example 16B]
12 | 1.1 | CNC(=O)[C@H]1C[C@@H]1c1ccc(-c2ncn(C)c2Sc2ccc(Cl)cn2)cc1 [Example 6B]
13 | 24 | Cn1cnc(-c2ccc([C@H]3C[C@@H]3c3n[nH]c(=O)o3)cc2)c1Sc1ccc(Cl)cc1 [Example 39B]
14 | 20 | CC(C)c1ccc(Sc2c(-c3ccc([C@H]4C[C@@H]4c4n[nH]c(=O)o4)cc3)ncn2C)cc1 [Example 43B]

System: Complete Freunds Adjuvant model of inflammatory pain
Test: Combination study: isobolographic analysis in the Complete Freunds Adjuvant model of inflammatory pain
Type: in vivo
Settings: rat, PO, etoricoxib:Compound A dose ratios 1:1, 0.3:1 and 3:1
Protocol: Etoricoxib and Compound A were tested in PO dose ratios of 1:1, 0.3:1, and 3:1.

Row | Compound | Interaction of analgesic effect against inflammatory pain when co-dosed (isobologram)
15 | CC(C)(O)c1ccc(-c2nc(-c3ccc(F)c(F)c3)oc2Sc2ccc(Cl)cn2)cn1 [compound A] | additive
16 | Cc1ccc(-c2ncc(Cl)cc2-c2ccc(S(C)(=O)=O)cc2)cn1 [etoricoxib, reference compound] | additive
